Experimental findings from patent US20110152092A1, “Herbicidal compositions comprising flufenacet” (Bayer CropScience AG, priority 2009, published 2011) are described below.

Data set [1] deals with APESV. In words: Greenhouse trial, PO application, post-emergence action against weeds (test method 2). Format: in vivo, Apera Spica-venti. The following applies: g of AS/ha: (A) 120, (B) 1200, (C) 120, mixture 120 + 1200 + 120. The protocol:
(§1) In the standard design of the test, seeds of various broad-leaved weed and weed grass biotypes (origins) were sown in a 8-13 cm diameter pot filled with natural soil of a standard field soil (loamy silt; non-sterile) and covered with a covering soil layer of about 1 cm. The pots were then cultivated in a greenhouse (12-16 h of light, temperature day 20-22° C., night 15-18° C.) until the time of application. The pots were treated on a laboratory track sprayer with spray liquors comprising the compositions according to the invention, mixtures of the prior art or components used individually. Application of the active compounds or active compound combinations formulated as WG, WP, EC or otherwise was carried out at the appropriate growth stages of the plants. The application rate for the spray application was 100-600 l of water/ha. After the treatment, the plants were returned to the greenhouses.
(§2) About 3 weeks after the application, the soil action or/and foliar action was assessed visually according to a scale of 0-100% in comparison to an untreated comparative group: 0%=no noticeable effect compared to the untreated comparative group; 100%=full effect compared to the untreated comparative group. […]

For data set [2], the system named is STEME. The data set is described as above. The note with it: g of AS/ha: (A) 120, (B) 1200, (C) 120, mixture 120 + 1200 + 120. Format: in vivo, Stellaria media. The protocol: as §1, §2
Data set [3] has as its system LOLPE. The description is as above. The following applies: g of AS/ha: (A) 120, (B) 1200, (C) 120, mixture 120 + 1200 + 120. In kind it is in vivo, Lolium perenne. On the procedure:
as §1, §2

Data set [4] relates to HORVS. In words: Greenhouse trial, PO application, selective post-emergence action on crop (test method 4). Format: in vivo, Hordeum vulgare, summer barley. The following applies: g of AS/ha: (A) 120, (B) 1200, (C) 120, mixture 120 + 1200 + 120. The protocol: as §1, §2
Data set [5] has as its system LOLPE. In words: Greenhouse trial, PE application, pre-emergence action against weeds (test method 1). Format: in vivo, Lolium perenne. The following applies: g of AS/ha: (A) 90, (B) 1200, (C) 90, mixture 90 + 1200. On the procedure:
as §1, §2

The test system of data set [6] is AVEFA. The description is as above. The note with it: g of AS/ha: (A) 90, (B) 1200, (C) 90, mixture 90 + 1200. In kind it is in vivo, Avena fatua. The protocol: as §1, §2
Data set [7] concerns HORVS. The data set is described as follows: Greenhouse trial, PE application, selective pre-emergence action on crop (test method 3). The note with it: g of AS/ha: (A) 90, (B) 1200, (C) 90, mixture 90 + 1200. Format: in vivo, Hordeum vulgare, summer barley. On the procedure:
as §1, §2

Data set [8] has as its system LOLPE. The data set is described as follows: Greenhouse trial, pre-sowing application 7 days prior to sowing (test method 5). In kind it is in vivo, Lolium perenne. The following applies: g of AS/ha: (A) 90, (B) 1200, (C) 90, mixture 90 + 1200. The protocol:
as §1, §2

Data set [9] has as its system AVEFA. Described as above. In kind it is in vivo, Avena fatua. The note with it: g of AS/ha: (A) 90, (B) 1200, (C) 90, mixture 90 + 1200. The protocol:
as §1, §2

Data set [10] deals with HORVS. The description is as above. The note with it: g of AS/ha: (A) 90, (B) 1200, (C) 90, mixture 90 + 1200. In kind it is in vivo, Hordeum vulgare, summer barley. On the procedure:
as §1, §2

Data set [11] relates to AVEFA. The data set is described as follows: Greenhouse trial, PE application with different irrigation variations (test method 6). The following applies: g of AS/ha: (A) 120, (B) 1200, (C) 90, mixture 120 + 1200 + 90. Format: in vivo, Avena fatua. On the procedure:
as §1, §2

The subject of data set [12] is MATCH. Described as above. Format: in vivo, Matricaria chamomilla. The note with it: g of AS/ha: (A) 120, (B) 1200, (C) 90, mixture 120 + 1200 + 90. On the procedure:
as §1
(§3) About 3 weeks after the application, the soil action or/and foliar action was assessed visually according to a scale of 0-100% in comparison to an untreated comparative group: 0%=no noticeable effect compared to the untreated comparative group; 100%=full effect compared to the untreated comparative group.
(notes: the term “seeds” also includes vegetative propagation forms such as, for example, rhizome pieces; abbreviations used: h light=hours of illumination, g of AS/ha=gram of active substance per hectare, l/ha=liter per hectare, S=sensitive, R=resistant) • 1. Pre-emergence action against weeds: seeds of various broad-leaved weed and weed grass biotypes (origins) were sown in a 8-13 cm diameter pot filled with natural soil of a standard field soil (loamy silt; non-sterile) and covered with a covering soil layer of about 1 cm. The pots were then cultivated in a greenhouse (12-16 h of light, temperature day 20-22° C., night 15-18° C.) until the time of application. […]

Data set [13] concerns TRZAS. Described as above. The note with it: g of AS/ha: (A) 120, (B) 1200, (C) 90, mixture 120 + 1200 + 90. In kind it is in vivo, Triticum aestivum, summer wheat. On the procedure:
as §1, §3
(notes: the term “seeds” also includes vegetative propagation forms such as, for example, rhizome pieces; abbreviations used: h light=hours of illumination, g of AS/ha=gram of active substance per hectare, l/ha=liter per hectare, S=sensitive, R=resistant) • 1. Pre-emergence action against weeds: seeds of various broad-leaved weed and weed grass biotypes (origins) were sown in a 8-13 cm diameter pot filled with natural soil of a standard field soil (loamy silt; non-sterile) and covered with a covering soil layer of about 1 cm. The pots were then cultivated in a greenhouse (12-16 h of light, temperature day 20-22° C., night 15-18° C.) until the time of application. The pots were treated at the BBCH stage 00-10 of the seeds/plants on a laboratory track sprayer with spray liquors comprising the compositions according to the invention, mixtures or components used individually, as WG, WP, EC or other formulations. The application rate for the spray application was 100-600 l of water/ha. After the treatment, the plants were returned to the greenhouses and, when required, treated with fertilizer and watered. • 2. Post-emergence action against weeds: seeds of various broad-leaved weed and weed grass biotypes (origins) were sown in a 8-13 cm diameter pot filled with natural soil of a standard field soil (loamy silt; non-sterile) and covered with a covering soil layer of about 1 cm. The pots were then cultivated in a greenhouse (12-16 h of light, temperature day 20-22° C., night 15-18° C.) until the time of application. […]

`CCC(CC)Nc1c([N+](=O)[O-])cc(C)c(C)c1[N+](=O)[O-]` [(B) pendimethalin, N-(1-ethylpropyl)-3,4-dimethyl-2,6-dinitrobenzenamine]: the “activity APESV (visual, scale 0-100%)” value in [1] amounted to 0%. The “activity STEME (visual, scale 0-100%)” value in data set [2] is 30%. Besides, the “activity LOLPE (visual, scale 0-100%)” value in data set [3] is recorded as 0%; in data set [5], 10%; in data set [8] it was 80%. In addition, the “activity on crop plant HORVS (visual, scale 0-100%)” value in data set [4] is on record as 10%; in [7], 50%; in [10], 30%. Moreover, the “activity AVEFA (visual, scale 0-100%)” value is given as 40% in [6], 70% in [9], 80% in data set [11] (irrigation from above) and 40% in [11] (irrigation from below). In addition, the “activity MATCH (visual, scale 0-100%)” value is given as 30% in data set [12] (irrigation from above) and 18% in [12] (irrigation from below). Besides, the “activity on crop plant TRZAS (visual, scale 0-100%)” value stood at 50% in data set [13] (irrigation from above) and 0% in data set [13] (irrigation from below).
